Laboratory results from BindingDB's records for doi:10.1016/j.bmcl.2015.04.045 (Chungbuk National University, 2015).

Molecular target: T1, Pancreatic triacylglycerol lipase (Sus scrofa, UniProt P00591)
T1 sequence (P00591 whole entry): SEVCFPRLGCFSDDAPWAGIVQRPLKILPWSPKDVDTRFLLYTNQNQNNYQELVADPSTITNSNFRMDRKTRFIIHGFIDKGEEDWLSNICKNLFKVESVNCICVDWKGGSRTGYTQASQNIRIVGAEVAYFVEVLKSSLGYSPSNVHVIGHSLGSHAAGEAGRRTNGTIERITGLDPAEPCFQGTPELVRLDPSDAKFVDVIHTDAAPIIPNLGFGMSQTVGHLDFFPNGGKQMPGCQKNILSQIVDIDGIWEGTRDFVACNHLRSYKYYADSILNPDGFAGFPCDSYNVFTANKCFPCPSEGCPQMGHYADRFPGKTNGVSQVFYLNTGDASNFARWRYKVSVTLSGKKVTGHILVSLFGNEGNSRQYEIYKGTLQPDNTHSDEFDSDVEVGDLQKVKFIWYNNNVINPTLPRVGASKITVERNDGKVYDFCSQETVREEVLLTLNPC
Assay: Inhibition of porcine pancreatic lipase using p-nitrophenylbutyrate as substrate assessed as formation of p-nitrophenol preincubated for 15 mins followed by substrate addition measured after 15 mins

IC50 [µM]	Structure (SMILES)
> 70	O=c1cc(O)cc2oc(-c3ccc(O)cc3)c(O[C@@H]3O[C@H](CO)[C@@H](O)[C@H](O)[C@H]3O)c(O)c1-2 [3,4',5,7-Tetrahydroxyflavone-3-glucoside]
> 70	O=c1cc(O)cc2oc(-c3ccc(O)c(O)c3)c(O[C@@H]3O[C@H](CO)[C@@H](O)[C@H](O)[C@H]3O)c(O)c1-2 [Quercetin 3-O-beta-D-glucoside]
